# Data as given in patent US20260151620A1, “IMPLANT MEDICAL DEVICES” (Case Western Reserve University, priority 2021, published 2026).
# Assay: In vitro drug release from drug-loaded titania nanotube arrays (TNAs) in PBS at 37° C.
# Assay type: physicochemical
# Procedure: A total of 500 μL of DEX solution was pipetted onto the nanotube surface (pipetting 100 μL for 5 times) and allowed to dry in fume hood for an hour, ensuring that the nanotube array surface was completely dry prior to each pipetting and the release studies. Then, DEX-loaded TNA samples were immersed in Eppendorf tubes containing 100 μL of PBS (1× phosphate buffered saline) and were placed in a water bath kept at 37° C. For release measurements, all 100 μL from each releasing sample tube was transferred to a 96-well plate and measured using a SpectraMax M 2 Microplate Reader. The absorption of DEX was measured at 244 nm. After each measurement, the releasing medium was fully replaced with […] of fresh PBS.
# [1] = 37° C., TNAs on polyimide and foil substrates
# [2] = 37° C., TNAs on polyimide and foil substrates, PBS
burst after contacting the PBS [1],release profile [2],"release profile (37° C., ~0.5 μm-deep, 100 nm-diameter TNAs on polyimide)",relationship between nanotube diameter and release rate (nanotube diameters within the 30 nm-100 nm range),difference in release data between the two drug loading methods (normal pipetting vs soaking),duration of linear release [2],"duration of sustained release (TNA 2 micron long, 30 nm pore size, 37° C. (FIG. 6B))",Structure (SMILES)
no indication of a large burst,linear,linear,weak relationship,No significant difference,–,–,"C[C@@H]1C[C@H]2[C@@H]3CCC4=CC(=O)C=C[C@]4(C)[C@@]3(F)[C@@H](O)C[C@]2(C)[C@@]1(O)C(=O)COP(=O)(O)O [Dexamethasone, dexamethasone sodium phosphate]"
no indication of a large burst,linear,–,–,–,several weeks,nearly one month,Oc1ccc(C=Cc2cc(O)cc(O)c2)cc1 [Resveratrol]
